# Assay results published in ChEMBL document CHEMBL1158085, “Chrysosporide, a cyclic pentapeptide from a New Zealand sample of the fungus Sepedonium chrysospermum” (J Nat Prod, 2006).
# System: P388
# Assay: Cytotoxicity against mouse P388 cells
# Assay type: functional, cell-based
row,Compound,IC50
1,CC(C)C[C@@H]1NC(=O)[C@H](CC(C)C)NC(=O)[C@@H](C)NC(=O)[C@H](C(C)C)NC(=O)[C@@H](CC(C)C)NC1=O [CHRYSOSPORIDE],33.4 µM
2,C/C=C/[C@@H]1OC(=O)C=C[C@@H]1O [PHOMALACTONE],40.9 µM
3,CC(=O)Cc1cc(O)c(C)c(O)c1C=O,19.7 µM
4,Cc1cc(O)c(C)c(O)c1C=O,126 µM
